According to patent US20250376466A1, “ESTER COMPOUNDS AND USE THEREOF” (NANJING REJU THERAPEUTICS, CO., LTD., priority 2022, published 2025):

Experiments:
[1] = test system: diabetic retinopathy; experiment: Mouse model of diabetic retinopathy (STZ), Evans blue penetration; type: in vivo; settings: intravitreal (IVT), 1 μL of 200 μM at 8 and 9 weeks after STZ; Evans blue at 10 weeks; FIG. 4
Protocol: The efficacy of the compounds of the present disclosure was studied in a mouse model of diabetic retinopathy by multiple administrations of streptozotocin (STZ). C57BL/6J mice at 6 to 7 weeks were weighed and their baseline blood glucose was measured (Sino). STZ (Sigma-Aldrich) was injected intraperitoneally into the mice at 55 mg/Kg for five consecutive days. Age-matched controls were injected with buffer only. Blood glucose was measured again one week after the last STZ injection. 1 μL of the test compound (200 μM, a suspension formulated in 0.015% polysorbate 80, 0.2% sodium phosphate, 0.75% sodium chloride, pH 7.2) was injected intravitreally into the STZ-treated diabetic C57BL/6J mice at 8 and 9 weeks after STZ administration. 10 weeks after STZ treatment, the retinal Evans blue penetration assay was performed.

[2] = test system: renal fibrosis; experiment: Renal fibrosis animal model (ureter ligation); type: in vivo, mice; settings: intraperitoneal (IP) injection from 2nd week of modelling; FIG. 11
Protocol: In this example, the efficacy of the compound of the present disclosure was tested on renal fibrosis in an animal model of renal fibrosis. Briefly, C57BL/6J mice, male, 7 to 8 weeks old, were used. The mice were anaesthetized, made to lie supine on a foam board, and disinfected with iodophor, and a longitudinal incision was made in the skin in the middle of the lower abdomen to locate the white line of the abdominal muscle, where the abdominal muscle, fascia and peritoneal layer were dissected. After exposing the surgical field, the kidneys were exposed by pushing the stomach and mesentery of the mice to the right side with a gauze soaked with saline. The model of renal fibrosis was constructed by locating the transparent ureter from the renal pelvis along the renal artery, separating the left ureter, ligating the upper ⅓ of the left ureter, suturing the incision layer by layer, and finally disinfecting with iodophor. Dosing via intraperitoneal injection was started from the 2nd week of modelling. At the end of the experiment, the mouse serum was collected and kidney tissues were taken for Masson staining index assay.

[3] = test system: wet-age-related macular degeneration (CNV); experiment: CNV animal model of wet age-related macular degeneration; type: in vivo, mice; settings: intravitreal (IVT); laser CNV model; FIG. 5
Protocol: In this example, the efficacy of the compounds of the present disclosure was tested on wet-age-related macular degeneration in a CNV animal model.
Male mice were administered 0.5% probacaine hydrochloride (Alcon) for local anesthesia, and 1% tropicamide to dilate the pupils of the mice. Laser cauterization was performed using a laser photocoagulator (Novus Varia, LUMENIS) with a slit lamp delivery system. And artificially torn adherent glass coverslips were used as contact lenses. Bleeding spots caused by laser were not included in the statistical data.

[4] = test system: idiopathic pulmonary fibrosis; experiment: Bleomycin idiopathic pulmonary fibrosis animal model; type: in vivo, SD rats; settings: intraperitoneal (IP) 5 mg/kg, 3 consecutive weeks from day 7; Day 28; FIG. 6
Protocol: In this example, the efficacy of the compounds of the present disclosure was tested on idiopathic pulmonary fibrosis in an idiopathic pulmonary fibrosis animal model. Briefly, anesthetized 6-week-old SD rats were fixed on a foam board with medical tape. Firstly, the skin on the surface of the trachea was cut with surgical scissors to fully expose the trachea, and a 100-microlitre micro-syringe containing a certain volume of bleomycin (BLM 5 mg/kg) solution drawn based on the body weight of the rat was inserted into the trachea through the oral cavity to administer by slow bolus injection. After administration of the BLM solution, the foam plate was immediately rotated and shaken to distribute the BLM solution as evenly as possible in the lung tissue. Then the skin on the surface of the trachea was sutured with surgical sutures and about 0.5 to 1.0 mL of penicillin solution was dripped onto the epidermis to prevent infection of the surgical wound. After the 7th day of modelling, the compound solution of the present disclosure was administered via intraperitoneal (IP) injection (5 mg/kg) according to the weight of the rat for 3 consecutive weeks. Rats were euthanized by carbon dioxide at Day 28, the lung tissues were removed, the left alveolar lavage fluid was collected for white blood cell (WBC) counting, the right lung tissue portion was used for hydroxyproline (HYP) assay, and the remaining lung tissues were stained for pathology by H&E staining and Masson staining.

[5] = test system: normal and senescent A549 cells; experiment: Senescent cell clearance index (senolytic index); type: cell-based, human; settings: higher index = greater specificity
Protocol: In this example, human non-small cell lung cancer cell line (A549 cells), human embryonic lung fibroblast cell line (IMR90 cells), human retinal pigment epithelial cells (RPE cells), mouse chondrocytes, and mouse skin fibroblasts were selected. The cells above were induced to obtain senescent cells by etoposide (10 μM). The effect of the target compounds RZ001-RZ006 and RZ201 on the viability of normal and senescent cells above was detected, thereby evaluating the specific killing effect of the prodrugs RZ001-RZ006 and RZ201 on senescent cells above.
Briefly, senescent and normal cells above were selected and plated separately (96-well plates). After adding the compounds RZ001-RZ006 and RZ201 (concentration: 1 μM) for 72 hours, CellTiter-Glo® Luminescent Cell Viability Assay Kit (Promega) was used to detect cell viability, and the results were shown in FIGS. 2A to 2E.
Furthermore, the senescent cell clearance index (senolytic index) was also calculated for both normal and senescent A549 cells, as shown in Table 4. A higher index indicates greater specificity in eliminating senescent cells and better safety.

[6] = test system: hepatic fibrosis; experiment: CCl4 mouse model of hepatic fibrosis; type: in vivo, mice; settings: intraperitoneal (IP) injection twice a week from third week of modelling; FIG. 9
Protocol: In this example, the efficacy of the compounds of the present disclosure was tested on hepatic fibrosis in an animal model of hepatic fibrosis. Briefly, C57BL/6N mice, male, 7 to 8 weeks old, 24 to 28 g of body weight, were used. The mouse model of hepatic fibrosis was induced by intraperitoneal injection of CCl4 solution at a dosage of 1 mL/kg, with a dosing frequency of 2 times/week, and a modelling cycle of 6 weeks. Dosing via intraperitoneal injection was started from the third week of modelling twice a week. At the end of the test, serum was collected, and liver tissue was taken for Masson staining index assay.

[7] = test system: aging skin; experiment: Aging skin in naturally aging mouse model; type: in vivo; settings: skin application twice a week, 6 consecutive weeks; aged female mice (22 months old); FIG. 10
Protocol: In this example, aged female C57bl/6J mice (22 months old) were used. The drug was administered by skin application at twice a week for 6 consecutive weeks.

Cc1oc(=O)oc1COC(=O)c1nc(N2CCc3cccc(C(=O)Nc4nc5ccccc5s4)c3C2)ccc1-c1cnn(CC23CC4CC(CC(C4)C2)C3)c1C [RZ201]
A (A represents more than 200): senescent cell clearance index (Senolytic Index) [5]
improved vascular permeability: vascular permeability in both the retinal and choroidal vascular leakage [1]
statistically significant improvements: pathology (kidney, Masson staining) [2] | serum creatinine (Cr) levels [2] | serum urea nitrogen (BUN) levels [2] | fluorescence intensity indicators [3] | HYP (hydroxyproline, lung tissue) [4] | WBC (white blood cell count, alveolar lavage fluid) [4] | pathology scores (H&E and Masson staining, lung) [4] | pathology scores (liver, Masson staining) [6] | serum alanine aminotransferase (ALT) levels [6] | serum aspartate aminotransferase (AST) levels [6] | epidermal thickness scores of the skin [7]

Cc1c(-c2ccc(N3CCc4cccc(C(=O)Nc5nc6ccccc6s5)c4C3)nc2C(=O)OCOC(=O)C(C)C)cnn1CC12CC3CC(CC(C3)C1)C2 [RZ001]
A (A represents more than 200): senescent cell clearance index (Senolytic Index) [5]
statistically significant improvements: pathology (kidney, Masson staining) [2] | serum creatinine (Cr) levels [2] | serum urea nitrogen (BUN) levels [2] | fluorescence intensity indicators [3] | HYP (hydroxyproline, lung tissue) [4] | WBC (white blood cell count, alveolar lavage fluid) [4] | pathology scores (H&E and Masson staining, lung) [4] | pathology scores (liver, Masson staining) [6] | serum alanine aminotransferase (ALT) levels [6] | serum aspartate aminotransferase (AST) levels [6] | epidermal thickness scores of the skin [7]
improved vascular permeability: vascular permeability in both the retinal and choroidal vascular leakage [1]
